Read-outs that look alike come from different tables or passages of the source.
Assay: Trans-enterocyte transport of CA in Caco-2 cell monolayer
Format: in vitro ADME, human
Conditions: human
Experimental: Caco-2 were cultured in EMEM complete medium containing 10% FBS, 1% non-essential amino acids, and 1% penicillin-streptomycin double antibody, and the culture conditions were 37 °C, 5% CO2, in a constant temperature incubator [16]. We first established non-toxic dose ranges of CA in Caco-2 cells using MTT assay. Dimethylsulfoxide (DMSO) was used as the vehicle to deliver CA to the cells. The final concentration of DMSO in all experiments was 0.1% (v/v) in cell culture media. Caco-2 cells were seeded in a 96-well plate at a cell density of 5 × 10^4 cells/mL per well, and cultured under 5% CO2 and 37 °C for 24 h. A quantity of 200 μL of medium was added to each well to obtain a series of CA solutions (concentrations of 25, 50, 75, and 100 μmoL). After 48 h of treatment, Caco-2 cells were subjected to the MTT assay as described previously. For the transport study, Caco-2 cells were seeded on the apical compartment (AP) of 12-well Transwell plates at a density of 2 × 10^5 cells/mL. The complete culture medium was added into basolateral (BL) and AP compartments. The basolateral medium was replaced every other day.
CA was dissolved in HBSS solution at 50, 75, and 100 μM. The HBSS solution containing CA combined with 0.5% Tween 80, 5 mmol/L EDTA or 5% PEG 400 was prepared. The cumulative migration (Qr), apparent permeability coefficient (Papp), and the Papp value of bi-direction transport of CA were calculated according to formulas.
The 0.5 mL […] containing different concentrations of CA was added to the AP side of the 12-well Transwell plate, and 1.5 mL HBSS solution was added to the BL side. At 0, 0.5, 1, 1.5, 2, 2.5, and 3 h, 0.2 mL medium was taken from the BL side and stored at −80 °C. The TEER value of each Transwell chamber was measured.
The cryopreserved Transwell samples were transferred to a 15 mL centrifuge tube, and any remaining liquid was fully washed using 1 mL of 50% methanol solution which was also transferred to the 15 mL centrifuge tube. The mixture was vortexed for 1 min, and 6 mL of ethyl acetate solution was added to the tube and vortexed for another 2 min. The mixture was centrifuged at 6000 rpm/min at 4 °C for 10 min. The supernatant was dried under vacuum, dissolved in 5% phosphoric acid methanol solution, and filtered through a 0.22 μm microporous membrane. The concentration of CA was determined by HPLC as described above.

[1] = Caco-2, CA 50 μM, Average of 0.5-3.0 h

Q: What does the source list for `CC(C)c1cc2c(c(O)c1O)[C@@]1(C(=O)O)CCCC(C)(C)[C@@H]1CC2` [CA, Carnosic acid]?
A: Papp B→A at 0.5 h, 50 μM (Caco-2, CA 50 μM, 0.5 h): 0.12 ± 0.1 ×10⁻⁶ cm/s; efflux ratio at 0.5 h, 50 μM (Caco-2, CA 50 μM, 0.5 h): 0.42; Papp A→B at 0.5 h, 50 μM (Caco-2, CA 50 μM, 0.5 h, CA alone, read-out: Papp AP to BL): 0.28 ± 0.07 ×10⁻⁶ cm/s; Papp A→B at 0.5 h, 50 μM (Caco-2, CA 50 μM, 0.5 h, read-out: Papp AP-BL): 0.28 ± 0.07 ×10⁻⁶ cm/s; Papp B→A at 1 h, 50 μM (Caco-2, CA 50 μM, 1.0 h): 0.21 ± 0.09 ×10⁻⁶ cm/s; efflux ratio at 1 h, 50 μM (Caco-2, CA 50 μM, 1.0 h): 0.58; Papp A→B at 1 h, 50 μM (Caco-2, CA 50 μM, 1.0 h, CA alone, read-out: Papp AP to BL): 0.36 ± 0.01 ×10⁻⁶ cm/s; Papp A→B at 1 h, 50 μM (Caco-2, CA 50 μM, 1.0 h, read-out: Papp AP-BL): 0.36 ± 0.01 ×10⁻⁶ cm/s; Papp B→A at 1.5 h, 50 μM (Caco-2, CA 50 μM, 1.5 h): 0.36 ± 0.06 ×10⁻⁶ cm/s; efflux ratio at 1.5 h, 50 μM (Caco-2, CA 50 μM, 1.5 h): 0.52; Papp A→B at 1.5 h, 50 μM (Caco-2, CA 50 μM, 1.5 h, CA alone, read-out: Papp AP to BL): 0.69 ± 0.09 ×10⁻⁶ cm/s; Papp A→B at 1.5 h, 50 μM (Caco-2, CA 50 μM, 1.5 h, read-out: Papp AP-BL): 0.69 ± 0.09 ×10⁻⁶ cm/s; Papp B→A at 2 h, 50 μM (Caco-2, CA 50 μM, 2.0 h): 0.49 ± 0.07 ×10⁻⁶ cm/s; efflux ratio at 2 h, 50 μM (Caco-2, CA 50 μM, 2.0 h): 0.44; Papp A→B at 2 h, 50 μM (Caco-2, CA 50 μM, 2.0 h, CA alone, read-out: Papp AP to BL): 1.11 ± 0.04 ×10⁻⁶ cm/s; Papp A→B at 2 h, 50 μM (Caco-2, CA 50 μM, 2.0 h, read-out: Papp AP-BL): 1.11 ± 0.04 ×10⁻⁶ cm/s; Papp B→A at 2.5 h, 50 μM (Caco-2, CA 50 μM, 2.5 h): 0.56 ± 0.05 ×10⁻⁶ cm/s; efflux ratio at 2.5 h, 50 μM (Caco-2, CA 50 μM, 2.5 h): 0.98; Papp A→B at 2.5 h, 50 μM (Caco-2, CA 50 μM, 2.5 h, CA alone, read-out: Papp AP to BL): 0.57 ± 0.03 ×10⁻⁶ cm/s; Papp A→B at 2.5 h, 50 μM (Caco-2, CA 50 μM, 2.5 h, read-out: Papp AP-BL): 0.57 ± 0.03 ×10⁻⁶ cm/s; Papp B→A at 3 h, 50 μM (Caco-2, CA 50 μM, 3.0 h): 0.29 ± 0.03 ×10⁻⁶ cm/s; efflux ratio at 3 h, 50 μM (Caco-2, CA 50 μM, 3.0 h): 1.32; Papp A→B at 3 h, 50 μM (Caco-2, CA 50 μM, 3.0 h, CA alone, read-out: Papp AP to BL): 0.22 ± 0.02 ×10⁻⁶ cm/s; Papp A→B at 3 h, 50 μM (Caco-2, CA 50 μM, 3.0 h, read-out: Papp AP-BL): 0.22 ± 0.02 ×10⁻⁶ cm/s; Papp B→A at 50 μM [1]: 0.33 ± 0.03 ×10⁻⁶ cm/s; efflux ratio at 50 μM [1]: 0.62; Papp A→B at 50 μM (Caco-2, CA 50 μM, Average of 0.5-3.0 h, CA alone, read-out: Papp AP to BL): 0.54 ± 0.05 ×10⁻⁶ cm/s; Papp A→B at 50 μM (Caco-2, CA 50 μM, Average of 0.5-3.0 h, read-out: Papp AP-BL): 0.53 ± 0.02 ×10⁻⁶ cm/s; Papp B→A at 0.5 h, 75 μM (Caco-2, CA 75 μM, 0.5 h): 0.91 ± 0.02 ×10⁻⁶ cm/s; efflux ratio at 0.5 h, 75 μM (Caco-2, CA 75 μM, 0.5 h): 0.88; Papp A→B at 0.5 h, 75 μM (Caco-2, CA 75 μM, 0.5 h, CA alone, read-out: Papp AP to BL): 1.03 ± 0.01 ×10⁻⁶ cm/s; Papp A→B at 0.5 h, 75 μM (Caco-2, CA 75 μM, 0.5 h, read-out: Papp AP-BL): 1.03 ± 0.01 ×10⁻⁶ cm/s; Papp B→A at 1.5 h, 75 μM (Caco-2, CA 75 μM, 1.5 h): 0.79 ± 0.07 ×10⁻⁶ cm/s; efflux ratio at 1.5 h, 75 μM (Caco-2, CA 75 μM, 1.5 h): 0.95; Papp A→B at 1.5 h, 75 μM (Caco-2, CA 75 μM, 1.5 h, CA alone, read-out: Papp AP to BL): 0.83 ± 0.01 ×10⁻⁶ cm/s; Papp A→B at 1.5 h, 75 μM (Caco-2, CA 75 μM, 1.5 h, read-out: Papp AP-BL): 0.83 ± 0.01 ×10⁻⁶ cm/s; Papp B→A at 2 h, 75 μM (Caco-2, CA 75 μM, 2.0 h): 0.62 ± 0.01 ×10⁻⁶ cm/s; efflux ratio at 2 h, 75 μM (Caco-2, CA 75 μM, 2.0 h): 0.33; Papp A→B at 2 h, 75 μM (Caco-2, CA 75 μM, 2.0 h, CA alone, read-out: Papp AP to BL): 1.84 ± 0.1 ×10⁻⁶ cm/s; Papp A→B at 2 h, 75 μM (Caco-2, CA 75 μM, 2.0 h, read-out: Papp AP-BL): 1.84 ± 0.1 ×10⁻⁶ cm/s; Papp B→A at 2.5 h, 75 μM (Caco-2, CA 75 μM, 2.5 h): 0.41 ± 0.03 ×10⁻⁶ cm/s; efflux ratio at 2.5 h, 75 μM (Caco-2, CA 75 μM, 2.5 h): 0.49; Papp A→B at 2.5 h, 75 μM (Caco-2, CA 75 μM, 2.5 h, CA alone, read-out: Papp AP to BL): 0.83 ± 0.01 ×10⁻⁶ cm/s
